This passage reports IC50 results from patent publication US9340577B2, “HLA binding motifs and peptides and their uses” (priority 1992, dated 2016).

Common to all, as to test: biochemical
Test [1] addresses DR1 (DRB1*0101) (Homo sapiens, UniProt P01903+P01911, A100R/D57E/F55L/F60I/F76Y/I96L/L162R/M171V/P40L/Q125E/R42F/V115G/Y59C). It counts as binding.
Test [2] has as its target DR4w4 (DRB1*0401) (Homo sapiens, UniProt P01903+P01911, A100K/A169T/F76Y/I96L/K127E/L162R/M171V/N62H/P40V/Q125Y/R42H/S133A/S149N/S66Y/V115G/V209L/W38E). It counts as binding.
In test [3] the target is DR7 (DRB1*0701) (Homo sapiens, UniProt P01903+P01911, A100R/A102G/A103Q/D57E/D86V/E43K/F76Y/K127E/L162R/M171V/P40G/Q125H/Q99D/R33Q/R42Y/R54Q/S133A/S66F/T210M/V115G/Y107V/Y59L/Y89S). The format is binding.
The target in test [4] is DRB1*0301 (Homo sapiens, UniProt P01903+P01911, A100K/A102G/A103R/A169T/F55Y/I96L/K41T/L162R/M171V/P40S/Q125H/Q178H/Q39Y/R42S/S66N/T106N/T262R/W38E/Y61H). The format is binding.
Chain of DRB1*0301 (P01903 26-254 limits assumed, other chains not shown): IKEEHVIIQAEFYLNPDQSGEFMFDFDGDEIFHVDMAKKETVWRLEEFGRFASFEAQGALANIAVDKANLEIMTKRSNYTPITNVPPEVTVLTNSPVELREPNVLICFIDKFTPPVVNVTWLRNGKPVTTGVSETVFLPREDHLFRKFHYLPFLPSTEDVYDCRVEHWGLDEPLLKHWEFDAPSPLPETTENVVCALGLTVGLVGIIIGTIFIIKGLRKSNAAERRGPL
The target of test [5] is DRB1*0405 (Homo sapiens, UniProt P01903+P01911, A100R/A169T/D86S/F76Y/I96L/K127E/L162R/M171V/N62H/P40V/Q125Y/R42H/S133A/S149N/S66Y/V115G/V209L/W38E). The format is binding.
The target in test [6] is DRB1*0802 (Homo sapiens, UniProt P01903+P01911, A100R/A103L/A169T/F76Y/H45Y/I96F/K41T/L162R/M171V/P40S/Q125H/Q178H/Q39Y/Q99D/R218S/R42G/S66Y/V115G/W38E). It counts as binding.
Test [7] addresses DRB1*0901 (Homo sapiens, UniProt P01903+P01911, A100R/A103E/D57H/D86V/F55Y/F60I/F76Y/I96F/K127E/L162R/M171V/P40D/Q125H/Q99R/R33Q/R42F/S133A/S66N/T210M/V115G/W38K/Y107V/Y59G/Y89S). The format is binding.
The target in test [8] is DRB1*1201 (Homo sapiens, UniProt P01903+P01911, A100R/A169T/D57E/D86V/F55L/H45Y/K41T/L162R/M171V/P40S/Q125H/Q178H/Q39Y/Q99D/R42G/S66L/T262R/V114A/V67L/W38E/Y59H/Y61H/Y89S). The format is binding.
Test [9] deals with DRB1*1302 (Homo sapiens, UniProt P01903+P01911, A100E/A169T/K41T/L162R/M171V/P40S/Q125H/Q178H/Q39Y/Q99D/R42S/S66N/T262R/V115G/W38E/Y61H). It counts as binding.
Chain of DRB1*1302 (P01903 26-254 limits assumed, other chains not shown): as above
Test [10] concerns the target DRB1*1501 (Homo sapiens, UniProt P01903+P01911). It counts as binding.
Test [11] has as its target DRB3*0101 (Homo sapiens, UniProt P01903+P79483). It counts as binding.
The target in test [12] is DRB4*0101 (Homo sapiens, UniProt P01903+P13762, G164S). The format is binding.
Test [13] concerns the target DRB1*1101 (Homo sapiens, UniProt P01903+P01911, A100R/A169T/A87E/I96F/K41T/L162R/M171V/P40S/Q125H/Q178H/Q39Y/Q99D/R42S/S66Y/T262R/V115G/W38E). The following applies: Binding affinity DRB1 *1101.
Test [14] addresses DRB5*0101 (Homo sapiens, UniProt P01903+Q30154). The following applies: Binding affinity DRB5 *0101.

No end group written: not given here. Bounds are passed on as bounds.

Chain of DRB1*1101 (P01903 26-254 limits assumed, other chains not shown): as above

Take YRHYQYSLYGKTLEE [Peptide 1543.58]: the 50% inhibitory concentration (IC50) in test [1] was 11 nM; in [2], 4.1 nM; in [3], 146 nM; in test [4], more than 20000 nM; in test [5] it was 25 nM; in test [6], 410 nM. Besides, the half-maximal inhibitory concentration (IC50) in [7] was 273 nM; in test [8], 12000 nM; in test [9], 26 nM; in test [10], 2900 nM; in [11], more than 20000 nM; in [12], 2540 nM. Moreover, the results for the IC50 in test [13] and in [14] were 953 nM and 640 nM, respectively.

Turning to SEVYDFVFADLRIVY [Peptide 1543.48], the concentration for half-maximal inhibition (IC50) in [1] was 412 nM; in test [2], 620 nM; in test [3], 51 nM; in [4], 5.7 nM; in test [5], 2920 nM; in [6], 4040 nM. Besides, the IC50 was 33 nM in test [7]; 8090 nM in test [8]; 46 nM in test [9]; 558 nM in [11]; 1420 nM in [12]; more than 20000 nM in [13]. In test [14], this sequence had an IC50 of 2350 nM.

In the case of CIHSTATDLRTLQQM [Peptide 1543.45], the IC50 in [1] was found to be 448 nM; in test [2], 14 nM; in test [3], 459 nM; in [4], 213 nM; in [5], 370 nM; in test [6], 493 nM. For the same sequence, the half-inhibitory concentration (IC50) is 19000 nM in test [7]; 4510 nM in [8]; 2990 nM in [9]; 15000 nM in test [10]; more than 20000 nM in test [11]; 159 nM in test [12]. Further, the IC50 in [14] was determined as 2450 nM.

For the sequence QSTQVDIRILQELLM [Peptide 1543.11], the 50% inhibitory concentration (IC50) was 544 nM in test [1]; 4560 nM in test [2]; 5390 nM in [3]; 2710 nM in test [4]; 3990 nM in test [5]; more than 20000 nM in [7]. Further, the half-maximal inhibitory concentration (IC50) was 2340 nM in [8]; 607 nM in test [9]; more than 20000 nM in [10]; more than 20000 nM in test [11]; 180 nM in test [12]; 6480 nM in [13]. Moreover, in test [14], the 50% inhibitory concentration (IC50) was more than 20000 nM.

With QRFHNIRGRWTGRCM [Peptide 1543.27], the IC50 is 36 nM in test [1]; 2900 nM in test [2]; more than 20000 nM in [4]; 4470 nM in [5]; 894 nM in test [6]; more than 20000 nM in test [7]. Moreover, the IC50 in test [8] was 14600 nM; in test [9], 5310 nM; in test [10] it was 17200 nM; in test [11] it was more than 20000 nM; in test [12] it was 4550 nM; in test [13], 574 nM. In [14], this sequence came in with a half-maximal inhibitory concentration (IC50) of 919 nM.

As for LYCYEQLSDSSDEDE [Peptide 1543.13], the 50% inhibitory concentration (IC50) in test [1] was 5690 nM; in [2], 1120 nM; in test [3] it was 9770 nM; in [4] it was more than 20000 nM; in test [5] it was 89 nM; in test [6], more than 20000 nM. For the same sequence, the IC50 in test [7] was more than 20000 nM; in [8], more than 20000 nM; in [9], more than 20000 nM; in test [10], more than 20000 nM; in test [11], more than 20000 nM; in test [12], 12700 nM. For the same sequence, the IC50 was 3380 nM in test [13] and more than 20000 nM in test [14].

For GCWRQTSREPRESTV [Peptide 1543.46], the IC50 in [1] is 2640 nM; in test [2], 1840 nM; in test [3] it was 72 nM; in test [4] it was 902 nM; in test [5], 2300 nM; in test [6], 356 nM. Besides, the IC50 is 3200 nM in test [7]; more than 20000 nM in test [8]; more than 20000 nM in test [9]; more than 20000 nM in [10]; more than 20000 nM in test [11]; more than 20000 nM in test [12]. The figures for the IC50 in test [13] and in test [14] were 144 nM and 4270 nM, respectively.

Turning to TELNTSLQDIEITCV [Peptide 1543.34], the IC50 in test [1] was more than 20000 nM; in test [2], more than 20000 nM; in test [3], more than 20000 nM; in [4] it was more than 20000 nM; in test [5] it was more than 20000 nM; in test [6] it was 5520 nM. Besides, the IC50 in test [7] is more than 20000 nM; in [8], more than 20000 nM; in test [9], 7070 nM; in test [10] it was more than 20000 nM; in test [11], more than 20000 nM; in test [12] it was 922 nM. Besides, the half-maximal inhibitory concentration (IC50) in test [13] and in test [14] was more than 20000 nM throughout.

EDLRTLQQLFLSTLS [Peptide 1543.21]: the IC50 was determined as 20 nM in test [1]; 34 nM in test [2]; 390 nM in test [3]; 6770 nM in test [4]; 582 nM in test [5]; 12800 nM in [6]. The IC50 is 15500 nM in test [7]; 958 nM in [8]; 7.5 nM in test [9]; 141 nM in test [10]; more than 20000 nM in [11]; 17 nM in test [12]. Also, the half-maximal inhibitory concentration (IC50) in [13] was 279 nM; in test [14], more than 20000 nM.

Regarding DGVSHAQLPARRAEP [Peptide 1543.18], the IC50 in test [2] is more than 20000 nM; in test [3], more than 20000 nM; in test [4], 2480 nM; in test [5], more than 20000 nM; in test [6], more than 20000 nM; in test [7] it was more than 20000 nM. For the same sequence, the IC50 in [8] is more than 20000 nM; in [9] it was more than 20000 nM; in test [10], more than 20000 nM; in test [11] it was more than 20000 nM; in [12] it was 1930 nM; in [13], more than 20000 nM. For the same sequence, in test [14], the IC50 stood at 392 nM.

As for RHLDKKQRFHNIRGR [Peptide 1543.26], the IC50 in test [1] was 556 nM; in [2] it was 6200 nM; in test [3], 591 nM; in test [4], 5210 nM; in [5], 1550 nM; in [6], 7720 nM. The IC50 in test [7], in test [8], in test [9], in [10], in test [11] and in test [12] was more than 20000 nM in each case. Moreover, the IC50 in [14] turned out to be 5760 nM.

With RVCLLFYSKVRKYRY [Peptide 1543.54], the IC50 in test [2] worked out at 299 nM; in [3], 232 nM; in test [4], 71 nM; in test [5], 233 nM; in test [7], 656 nM; in [8], 603 nM. In addition, the 50% inhibitory concentration (IC50) came out at 89 nM in [9]; 717 nM in [10]; 868 nM in [11]; 7740 nM in test [12]; 4260 nM in test [13]; 3850 nM in [14].

KERHVNANKRFHNIM [Peptide 1543.59]: the half-maximal inhibitory concentration (IC50) was 413 nM in test [1]; 55 nM in [2]; 1350 nM in test [4]; 26 nM in [5]; 1230 nM in test [6]; 2850 nM in test [7]. Further, the IC50 in test [8] was 260 nM; in test [9], 5.2 nM; in test [10], 12900 nM; in test [11], more than 20000 nM; in [12] it was 8480 nM; in test [13], 83 nM. The sequence also gave a concentration for half-maximal inhibition (IC50) in test [14] of 502 nM.

The IC50 is the concentration at which inhibition is half-maximal. Read a high IC50 as weaker potency in that assay.
